According to ChEMBL document CHEMBL5357036, “Latest developments in coumarin-based anticancer agents: mechanism of action and structure-activity relationship studies” (RSC Med Chem, 2024):

Legend:
[1] = test system: HCT-116; experiment: Cytotoxicity against human HCT-116 cells assessed as reduction in cell viability incubated for 48 hrs by SRB assay; assay type: functional, cell-based; details: HCT-116, 48 h
[2] = test system: HT-29; experiment: Cytotoxicity against human HT-29 cells assessed as reduction in cell viability incubated for 48 hrs by SRB assay; assay type: functional, cell-based; details: HT-29, 48 h
[3] = test system: HT-29; experiment: Cytotoxicity against human HT-29 cells assessed as reduction in cell viability by MTT assay; assay type: functional, cell-based
[4] = test system: MDA-MB-231; experiment: Antiproliferative activity against human MDA-MB-231 cells assessed as reduction in cell viability measured after 72 hrs under hypoxia condition by MTT assay; assay type: functional, cell-based; details: MDA-MB-231, 72 h
[5] = test system: MDA-MB-231; experiment: Antiproliferative activity against human MDA-MB-231 cells assessed as cell growth inhibition incubated for 96 hrs by MTT assay; assay type: functional, cell-based; details: MDA-MB-231, 96 h
[6] = test system: HCT-116; experiment: Cytotoxicity against human HCT-116 cells assessed as reduction in cell viability incubated for 96 hrs by MTT assay; assay type: functional, cell-based; details: HCT-116, 96 h
[7] = test system: MDA-MB-231; experiment: Cytotoxicity against human MDA-MB-231 cells assessed as cell growth inhibition measured after 48 hrs by SRB assay; assay type: functional, cell-based; details: MDA-MB-231, 48 h
[8] = test system: MCF7; experiment: cells; details: Homo sapiens, MCF7, 48 h
Description: Anticancer activity against human MCF7 cells assessed as inhibition of cell growth incubated for 48 hrs by SRB assay

[9] = test system: T47D; experiment: Anticancer activity against human T47D cells assessed as cell growth inhibition; assay type: functional, cell-based

In the case of `CCCc1cc(=O)oc2cc(Nc3nc(-c4ccc(Br)cc4)cs3)ccc12`, the IC50 [1] is reported as 260 nM and the IC50 [2] is reported as 250 nM.

With `Cc1cc(=O)oc2cc(OCn3cc(CCCO[C@H]4O[C@@H]5O[C@@]6(C)CC[C@H]7[C@H](C)CC[C@@H]([C@H]4C)[C@@]57OO6)nn3)ccc12` the IC50 [3] was over 100000 nM.

Molecule `Cc1c(C)c2ccc(OCCCn3cc(CO[C@H]4O[C@@H]5O[C@@]6(C)CC[C@H]7[C@H](C)CC[C@@H]([C@H]4C)[C@@]57OO6)nn3)cc2oc1=O` has an IC50 [3] of 1220 nM.

`COC(=O)c1cccc(NC(=O)c2ccc(-n3cc(COc4cc(=O)oc5ccccc45)nn3)cc2)c1` gave an IC50 [4] of 250 nM.

With `COc1ccccc1-c1csc(Nc2ccc3c(C)cc(=O)oc3c2)n1` the IC50 [1] was 250 nM and the IC50 [2] was 250 nM.

For `Cc1cccc2c(OCn3cc(CCCO[C@H]4O[C@@H]5O[C@@]6(C)CC[C@H]7[C@H](C)CC[C@@H]([C@H]4C)[C@@]57OO6)nn3)cc(=O)oc12`, the IC50 [5] was 39 nM and the IC50 [6] was 39 nM.

Molecule `Cc1ccc2c(Cn3cc(CCO[C@H]4O[C@@H]5O[C@@]6(C)CC[C@H]7[C@H](C)CC[C@@H]([C@H]4C)[C@@]57OO6)nn3)cc(=O)oc2c1` has an IC50 [7] of over 100000 nM.

Molecule `Cc1c(Cl)c(=O)oc2cc(OCCCn3cc(CO[C@H]4O[C@@H]5O[C@@]6(C)CC[C@H]7[C@H](C)CC[C@@H]([C@H]4C)[C@@]57OO6)nn3)ccc12` has an IC50 [3] of 1220 nM.

`CCOC(=O)c1cc2ccc(OCn3cc(CCCO[C@H]4O[C@@H]5O[C@@]6(C)CC[C@H]7[C@H](C)CC[C@@H]([C@H]4C)[C@@]57OO6)nn3)cc2oc1=O` was tested, and the IC50 [3] was over 100000 nM.

Molecule `Cc1c(C)c2ccc(OCn3cc(CCO[C@H]4O[C@@H]5O[C@@]6(C)CC[C@H]7[C@H](C)CC[C@@H]([C@H]4C)[C@@]57OO6)nn3)cc2oc1=O` has an IC50 [3] of 2460 nM.

In the case of `Cc1c(C)c2ccc(OCCn3cc(CO[C@H]4O[C@@H]5O[C@@]6(C)CC[C@H]7[C@H](C)CC[C@@H]([C@H]4C)[C@@]57OO6)nn3)cc2oc1=O`, the IC50 [3] is reported as 50 nM.

For `Cc1cc(C)c2c(OCn3cc(CCO[C@H]4O[C@@H]5O[C@@]6(C)CC[C@H]7[C@H](C)CC[C@@H]([C@H]4C)[C@@]57OO6)nn3)cc(=O)oc2c1`, the IC50 [6] was over 100000 nM.

For `Cc1c(C)c2ccc(OCn3cc(CCCO[C@H]4O[C@@H]5O[C@@]6(C)CC[C@H]7[C@H](C)CC[C@@H]([C@H]4C)[C@@]57OO6)nn3)cc2oc1=O`, the IC50 [3] was over 100000 nM.

Molecule `C[C@H]1[C@@H](OCCc2cn(COc3cc(=O)oc4ccccc34)nn2)O[C@@H]2O[C@@]3(C)CC[C@H]4[C@H](C)CC[C@@H]1[C@@]24OO3` has an IC50 [6] of over 100000 nM.

In the case of `Cc1cc(C)c2c(OCn3cc(CCCO[C@H]4O[C@@H]5O[C@@]6(C)CC[C@H]7[C@H](C)CC[C@@H]([C@H]4C)[C@@]57OO6)nn3)cc(=O)oc2c1`, the IC50 [5] is reported as 39 nM and the IC50 [6] is reported as 39 nM.

`Cc1nc(N2N=C(c3cc4ccccc4oc3=O)CC2c2ccc(N(C)C)cc2)sc1/N=N/c1ccc(Cl)cc1` (stereo unspecified) was tested, and the IC50 [8] was 5410 nM.

With `C[C@H]1[C@@H](OCc2cn(Cc3cc(=O)oc4cc(O)ccc34)nn2)O[C@@H]2O[C@@]3(C)CC[C@H]4[C@H](C)CC[C@@H]1[C@@]24OO3` the IC50 [7] was over 100000 nM.

With `Cc1ccc2oc(=O)cc(OCn3cc(CCCO[C@H]4O[C@@H]5O[C@@]6(C)CC[C@H]7[C@H](C)CC[C@@H]([C@H]4C)[C@@]57OO6)nn3)c2c1` the IC50 [5] was 39 nM and the IC50 [6] was 39 nM.

Work on `O=C(/C=C/c1ccc(N2CCOCC2)cc1)c1cc2ccccc2oc1=O` yielded an IC50 [9] of 900 nM.

`C[C@H]1[C@@H](OCc2cn(CCOc3ccc4c(C(F)(F)F)cc(=O)oc4c3)nn2)O[C@@H]2O[C@@]3(C)CC[C@H]4[C@H](C)CC[C@@H]1[C@@]24OO3` gave an IC50 [3] of 50 nM.

`CCOC(=O)c1cc2ccc(OCCn3cc(CO[C@H]4O[C@@H]5O[C@@]6(C)CC[C@H]7[C@H](C)CC[C@@H]([C@H]4C)[C@@]57OO6)nn3)cc2oc1=O` showed an IC50 [3] of 50 nM.

`Cc1ccc2oc(=O)cc(Cn3cc(CO[C@H]4O[C@@H]5O[C@@]6(C)CC[C@H]7[C@H](C)CC[C@@H]([C@H]4C)[C@@]57OO6)nn3)c2c1` gave an IC50 [7] of over 100000 nM.

For `Cc1cc(C)c2c(Cn3cc(CO[C@H]4O[C@@H]5O[C@@]6(C)CC[C@H]7[C@H](C)CC[C@@H]([C@H]4C)[C@@]57OO6)nn3)cc(=O)oc2c1`, the IC50 [7] was over 100000 nM.

Work on `Cc1ccc(/N=N/c2sc(N3N=C(c4c(O)c5ccccc5oc4=O)CC3c3ccc(N(C)C)cc3)nc2-c2ccccc2)cc1` (stereo unspecified) yielded an IC50 [8] of 5410 nM.

`C[C@H]1[C@@H](OCCc2cn(COc3ccc4c(C(F)(F)F)cc(=O)oc4c3)nn2)O[C@@H]2O[C@@]3(C)CC[C@H]4[C@H](C)CC[C@@H]1[C@@]24OO3` was tested, and the IC50 [3] was 2460 nM.

`Cc1cc(=O)oc2cc(OCCn3cc(CO[C@H]4O[C@@H]5O[C@@]6(C)CC[C@H]7[C@H](C)CC[C@@H]([C@H]4C)[C@@]57OO6)nn3)ccc12` gave an IC50 [3] of 50 nM.
